Test systems include EKVX NSCLC; HOP-62 NSCLC; OVCAR-5 ovarian; MALME-3M melanoma; 786-0 renal; IGROV1 ovarian; SK-MEL-28 melanoma; SNB-19 CNS.
Holding throughout (assay): DTP human tumour cell line panel, 48 h

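How tested: cells in 96-well plates exposed to compound for 48 hours at five concentrations. The concentration for 50% growth inhibition is given as GI50. At the TGI there is no net growth.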

Broadly, the GI50 is the concentration giving 50% growth inhibition. In general, TGI refers to the concentration at which net growth stops. The low end stands for more potent growth arrest, the high end for less potent growth arrest.

As for `CN(C)c1ccc(/C=c2/c3ccccc3n3c2c2cc(F)ccc2[n+]3C)cc1`, the GI50 with EKVX NSCLC is 4.29 µM; in the test on HOP-62 NSCLC, 8.6 µM; with OVCAR-5 ovarian, 16.2 µM; in the test on MALME-3M melanoma it was 1.87 µM; with 786-0 renal, 4.24 µM; in the test on IGROV1 ovarian it was 5.98 µM. In addition, the GI50 with SK-MEL-28 melanoma is 3.55 µM; in the test with SNB-19 CNS it was 10.2 µM. Besides, the TGI is 20.1 µM with EKVX NSCLC; 26.4 µM in the test with HOP-62 NSCLC; 31.5 µM with OVCAR-5 ovarian; 7.54 µM in the test on MALME-3M melanoma; 21 µM with 786-0 renal; over 36.7 µM with IGROV1 ovarian. The figures for the TGI in the test on SK-MEL-28 melanoma and in the test on SNB-19 CNS were 14.1 µM and 44.3 µM, respectively.
As to `COc1ccc(Nc2nc3cc(N)cc(N)c3nc2-c2ccccc2)cc1OC`, the GI50 in the test with EKVX NSCLC was 25.6 µM; in the test on HOP-62 NSCLC, 34.8 µM; in the test on OVCAR-5 ovarian it was 29.7 µM; with MALME-3M melanoma it was 15.7 µM; with 786-0 renal, 23.8 µM; in the test with IGROV1 ovarian, 24.8 µM. The GI50 is 21.5 µM in the test on SK-MEL-28 melanoma and 35.4 µM in the test on SNB-19 CNS. Further, the TGI is 71.1 µM in the test on EKVX NSCLC; over 100 µM in the test on HOP-62 NSCLC; 72.7 µM in the test on OVCAR-5 ovarian; 35.7 µM with MALME-3M melanoma; 90.3 µM with 786-0 renal; over 100 µM with IGROV1 ovarian. Further, the TGI with SK-MEL-28 melanoma is 49.7 µM; in the test with SNB-19 CNS, over 100 µM.
Take `COc1cc(C2C3=C(COC3=O)N(CCO)c3cc4c(cc32)OCO4)cc(OC)c1O` (centres undefined): the GI50 in the test on EKVX NSCLC is 4.36 µM; with HOP-62 NSCLC, 2.35 µM; in the test with OVCAR-5 ovarian it was 23.1 µM; with MALME-3M melanoma, 1.96 µM; in the test with 786-0 renal it was 2.02 µM; with IGROV1 ovarian, 1.47 µM. Besides, the results for the GI50 in the test with SK-MEL-28 melanoma and in the test on SNB-19 CNS were over 50 µM and 2.27 µM, respectively. The TGI in the test on EKVX NSCLC is over 50 µM; in the test on HOP-62 NSCLC it was over 50 µM; in the test with OVCAR-5 ovarian, over 50 µM; in the test with MALME-3M melanoma, over 50 µM; in the test on 786-0 renal it was over 50 µM; in the test with IGROV1 ovarian, 6.08 µM. Also, the TGI was over 50 µM in the test on SK-MEL-28 melanoma and over 18.8 µM in the test with SNB-19 CNS.
Consider `Cc1ccc(NCCN(C)C)c2c(=O)c3ccccc3sc12`, for which the GI50 was 2.96 µM with EKVX NSCLC; 1.55 µM in the test with HOP-62 NSCLC; 1.76 µM in the test with OVCAR-5 ovarian; 1.66 µM in the test on MALME-3M melanoma; 1.58 µM in the test on 786-0 renal; 1.5 µM with IGROV1 ovarian. The results for the GI50 in the test on SK-MEL-28 melanoma and in the test on SNB-19 CNS were 1.71 µM and 2.24 µM, respectively. Further, the TGI was determined as 9.93 µM with EKVX NSCLC; 3.11 µM with HOP-62 NSCLC; 3.38 µM with OVCAR-5 ovarian; 3.28 µM in the test with MALME-3M melanoma; 3.54 µM in the test with 786-0 renal; 5.05 µM in the test with IGROV1 ovarian. Further, the TGI is 3.11 µM with SK-MEL-28 melanoma and 6.63 µM with SNB-19 CNS.
With `Cc1c(C(N)=O)sc2c1c(=O)n(Cc1ccccc1)c1nnc(-c3ccc(Br)cc3)n21`, the GI50 in the test with EKVX NSCLC was 3.11 µM; in the test with HOP-62 NSCLC, 1.38 µM; with OVCAR-5 ovarian it was 7.17 µM; in the test on MALME-3M melanoma, 2.94 µM; in the test on 786-0 renal, 2.09 µM; in the test with IGROV1 ovarian, 2.15 µM. Besides, the GI50 with SK-MEL-28 melanoma is 4.09 µM; in the test on SNB-19 CNS, 2.91 µM. For the same compound, the TGI in the test with EKVX NSCLC was 21.6 µM; in the test on HOP-62 NSCLC it was 14.4 µM; with OVCAR-5 ovarian, 21.3 µM; with MALME-3M melanoma, 13.7 µM; in the test on 786-0 renal, 5.73 µM; in the test on IGROV1 ovarian it was 19.2 µM. Further, the TGI with SK-MEL-28 melanoma worked out at 17.1 µM; in the test on SNB-19 CNS it was 17.5 µM.
Take `CC(=O)c1cc(C(=O)c2ccc3c(c2)Sc2ccccc2N3)c2c(C)cccn12`: the GI50 was 0.476 µM in the test with EKVX NSCLC; 0.25 µM in the test on HOP-62 NSCLC; 0.63 µM in the test on OVCAR-5 ovarian; 13.6 µM in the test on MALME-3M melanoma; 0.488 µM with 786-0 renal; 0.621 µM in the test with IGROV1 ovarian. Further, the GI50 is 2.51 µM in the test on SK-MEL-28 melanoma and 0.246 µM in the test on SNB-19 CNS. The TGI in the test with EKVX NSCLC was over 100 µM; in the test on HOP-62 NSCLC it was 36.9 µM; with OVCAR-5 ovarian, over 100 µM; in the test on MALME-3M melanoma, over 100 µM; in the test with 786-0 renal it was 7.29 µM; in the test on IGROV1 ovarian, over 100 µM. The concentration for total growth inhibition (TGI) in the test on SK-MEL-28 melanoma and in the test on SNB-19 CNS was over 100 µM in each case.
Regarding `CCOC(=O)c1ccc2c(c1)[n+](=O)c(C(C)=O)c(C(F)(F)F)n2[O-]`, the GI50 with EKVX NSCLC is 1.82 µM; with HOP-62 NSCLC, 1.66 µM; in the test with OVCAR-5 ovarian it was 1.56 µM; in the test with MALME-3M melanoma, 1.4 µM; in the test with 786-0 renal, 1.67 µM; in the test on IGROV1 ovarian, 1.46 µM. Moreover, the GI50 in the test on SK-MEL-28 melanoma was 2.87 µM; with SNB-19 CNS, 1.73 µM. Further, the TGI in the test with EKVX NSCLC was determined as 3.96 µM; in the test with HOP-62 NSCLC, 3.54 µM; in the test on OVCAR-5 ovarian it was 3.22 µM; in the test with MALME-3M melanoma, 2.83 µM; in the test on 786-0 renal, 3.21 µM; with IGROV1 ovarian, 3.42 µM. Also, the TGI in the test with SK-MEL-28 melanoma was found to be 10.1 µM; in the test on SNB-19 CNS it was 4.18 µM.
Turning to `COc1cc2c(=O)n(CCN(C)C)c3c4cc5c(cc4ccc3c2cc1OC)OCO5`, the GI50 is 0.694 µM with EKVX NSCLC; 0.193 µM in the test on HOP-62 NSCLC; 0.519 µM in the test with OVCAR-5 ovarian; 0.241 µM with MALME-3M melanoma; 0.166 µM with 786-0 renal; 0.257 µM in the test on IGROV1 ovarian. Moreover, the GI50 in the test with SK-MEL-28 melanoma is 0.747 µM; in the test with SNB-19 CNS, 0.198 µM. Also, the TGI in the test on EKVX NSCLC came to 4.7 µM; in the test with HOP-62 NSCLC it was 1.88 µM; with OVCAR-5 ovarian, 3.8 µM; in the test on MALME-3M melanoma, 0.967 µM; in the test with 786-0 renal it was 0.672 µM; in the test with IGROV1 ovarian, 2.55 µM. The TGI in the test on SK-MEL-28 melanoma was determined as 3.3 µM; in the test on SNB-19 CNS, 8.41 µM.
For the compound `Cc1cc(Cl)ccc1Nc1nc(C(F)(F)F)ccc1C(=O)N/N=C/c1ccccc1Cl`, the GI50 in the test on EKVX NSCLC was 0.894 µM; in the test with HOP-62 NSCLC it was 0.836 µM; in the test with OVCAR-5 ovarian, 1.65 µM; in the test on MALME-3M melanoma it was 1.54 µM; in the test with 786-0 renal, 0.672 µM; in the test on IGROV1 ovarian, 1.57 µM. In addition, the GI50 with SK-MEL-28 melanoma is 1.38 µM; in the test on SNB-19 CNS, 1.72 µM. Besides, the TGI in the test with EKVX NSCLC is 7.23 µM; with HOP-62 NSCLC, 2.72 µM; in the test on OVCAR-5 ovarian, 11.1 µM; with MALME-3M melanoma it was 6.18 µM; in the test with 786-0 renal, 2.67 µM; in the test on IGROV1 ovarian, over 42.2 µM. In addition, the TGI in the test with SK-MEL-28 melanoma amounted to 6.88 µM; in the test with SNB-19 CNS, 14.5 µM.

For the origin of these results see PubChem BioAssay (NCI).
